# From patent publication US10770169B2, “Method of providing a treatment to a subject based on a dynamic pathway map” (THE REGENTS OF THE UNIVERSITY OF CALIFORNIA, priority 2010, dated 2020)
# Like-named read-outs stand apart in the source and are kept apart here.
# Tested on: panel of 55 breast cancer cell lines
# Assay: Cell growth inhibition assay (Cell Titer Glo, 72 h, 9 doses; GI50, TGI, LC50)
# Assay type: cell-based, human
# Settings: Homo sapiens, read-out: GI50 (converted)
# [1] = CAMA-1, CAMA1 cell line, censored GI50 values
# [2] = HCC1500, HCC1500 cell line, censored GI50 values
# [3] = HCC1806, HCC1806 cell line, censored GI50 values
# [4] = HCC1954, HCC1954 cell line, censored GI50 values
smiles,measurement,setting,value
CC(=O)O[C@H]1C(=O)[C@@]2(C)[C@H]([C@H](OC(=O)c3ccccc3)[C@]3(O)C[C@H](OC(=O)[C@H](O)[C@@H](NC(=O)c4ccccc4)c4ccccc4)C(C)=C1C3(C)C)[C@]1(OC(C)=O)CO[C@@H]1C[C@@H]2O [Paclitaxel],GI50,"600MPE cell line, censored GI50 values",0.0661 µM
same,GI50,"AU565, AU565 cell line, censored GI50 values",0.00813 µM
same,GI50,"AU565, cell line AU565",0.00813 µM
same,GI50,"BT-474, BT474 cell line, censored GI50 values",0.0102 µM
same,GI50,"BT-474, cell line BT474",0.0102 µM
same,GI50,"BT-483, BT483 cell line, censored GI50 values",0.0347 µM
same,GI50,"BT-483, cell line BT483",0.0347 µM
same,GI50,[1],0.0112 µM
same,GI50,"CAMA-1, cell line CAMA1",0.0112 µM
same,GI50,"HCC38, cell line HCC38",0.00741 µM
same,GI50,"HCC70, cell line HCC70",0.00813 µM
same,GI50,"HCC202, cell line HCC202",0.00794 µM
same,GI50,"HCC1143, HCC1143 cell line, censored GI50 values",0.017 µM
same,GI50,"HCC1143, cell line HCC1143",0.017 µM
same,GI50,"HCC1187, HCC1187 cell line, censored GI50 values",0.00891 µM
same,GI50,"HCC1187, cell line HCC1187",0.00891 µM
same,GI50,"HCC1395, HCC1395 cell line, censored GI50 values",0.0158 µM
same,GI50,"HCC1395, cell line HCC1395",0.0158 µM
same,GI50,"HCC1419, HCC1419 cell line, censored GI50 values",0.692 µM
same,GI50,"HCC1419, cell line HCC1419",0.692 µM
same,GI50,"HCC1428, HCC1428 cell line, censored GI50 values",16.6 µM
same,GI50,"HCC1428, cell line HCC1428",16.6 µM
same,GI50,[2],0.00794 µM
same,GI50,"HCC1500, cell line HCC1500",0.00794 µM
same,GI50,[3],0.00871 µM
same,GI50,"HCC1806, cell line HCC1806",0.00871 µM
same,GI50,[4],0.00708 µM
same,GI50,"HCC1954, cell line HCC1954",0.00708 µM
same,GI50,"MCF7, cell line MCF7",0.0162 µM
same,GI50,"MDA-MB-231, cell line MDAMB231",0.00525 µM
same,GI50,"MDA-MB-361, cell line MDAMB361",0.0132 µM
same,GI50,"MDA-MB-415, cell line MDAMB415",0.00525 µM
same,GI50,"MDA-MB-436, cell line MDAMB436",0.0427 µM
same,GI50,"MDA-MB-453, cell line MDAMB453",0.0102 µM
same,GI50,"MDA-MB-468, cell line MDAMB468",0.00871 µM
same,GI50,"SK-BR-3, cell line SKBR3",0.0112 µM
same,GI50,"SUM52PE, cell line SUM52PE",0.0049 µM
same,GI50,"SUM149PT, cell line SUM149PT",0.00933 µM
same,GI50,"SUM185PE, cell line SUM185PE",0.024 µM
same,GI50,"SUM-159-PT, cell line SUM159PT",0.0151 µM
same,GI50,"UACC-812, cell line UACC812",0.00912 µM
same,GI50,"UACC-893, cell line UACC893",0.0117 µM
same,GI50,"ZR-75-1, cell line ZR751",0.0275 µM
same,GI50,"ZR-75-30, cell line ZR7530",0.0219 µM
same,GI50,"ZR-75B, cell line ZR75B",0.00794 µM
same,GI50,cell line 600MPE,0.0661 µM
same,GI50,cell line HCC2185,0.00724 µM
same,GI50,cell line HCC3153,0.02 µM
same,GI50,cell line LY2,0.0105 µM
same,GI50,cell line MDAMB134V,0.01 µM
same,GI50,cell line MDAMB175V,0.0195 µM
same,GI50,cell line SUM1315MO,0.00617 µM
Nc1nc2[nH]cc(CCc3ccc(C(=O)N[C@@H](CCC(=O)O)C(=O)O)cc3)c2c(=O)[nH]1 [Pemetrexed],GI50,"AU565, cell line AU565",2950 µM
same,GI50,"BT-474, cell line BT474",2950 µM
same,GI50,"BT-483, cell line BT483",2950 µM
same,GI50,"BT-549, cell line BT549",2950 µM
same,GI50,[1],1480 µM
same,GI50,"CAMA-1, cell line CAMA1",1480 µM
same,GI50,"HCC38, cell line HCC38",2950 µM
same,GI50,"HCC70, cell line HCC70",2950 µM
same,GI50,"HCC202, HCC202 cell line, censored GI50 values",0.0209 µM
same,GI50,"HCC202, cell line HCC202",0.0209 µM
same,GI50,"HCC1143, cell line HCC1143",2950 µM
same,GI50,"HCC1187, cell line HCC1187",2950 µM
same,GI50,"HCC1419, cell line HCC1419",2950 µM
same,GI50,"HCC1428, cell line HCC1428",2950 µM
same,GI50,[2],0.501 µM
same,GI50,"HCC1500, cell line HCC1500",0.501 µM
same,GI50,[3],1480 µM
same,GI50,"HCC1806, cell line HCC1806",1480 µM
same,GI50,"HCC1937, HCC1937 cell line, censored GI50 values",155 µM
same,GI50,"HCC1937, cell line HCC1937",155 µM
same,GI50,[4],0.214 µM
same,GI50,"HCC1954, cell line HCC1954",0.214 µM
same,GI50,"LY2 cell line, censored GI50 values",0.468 µM
same,GI50,"MCF7, cell line MCF7",2950 µM
same,GI50,"MDA-MB-157, cell line MDAMB157",2950 µM
same,GI50,"MDA-MB-361, MDAMB361 cell line, censored GI50 values",0.49 µM
same,GI50,"MDA-MB-361, cell line MDAMB361",0.49 µM
same,GI50,"MDA-MB-436, cell line MDAMB436",2950 µM
same,GI50,"MDA-MB-453, MDAMB453 cell line, censored GI50 values",33.9 µM
same,GI50,"MDA-MB-453, cell line MDAMB453",33.9 µM
same,GI50,"MDA-MB-468, MDAMB468 cell line, censored GI50 values",1480 µM
same,GI50,"MDA-MB-468, cell line MDAMB468",1480 µM
same,GI50,"SK-BR-3, SKBR3 cell line, censored GI50 values",1480 µM
same,GI50,"SK-BR-3, cell line SKBR3",1480 µM
same,GI50,"SUM52PE, cell line SUM52PE",2950 µM
same,GI50,"SUM185PE, cell line SUM185PE",2950 µM
same,GI50,"T47D, cell line T47D",2950 µM
same,GI50,"UACC-812, cell line UACC812",2950 µM
same,GI50,"ZR-75-1, ZR751 cell line, censored GI50 values",204 µM
same,GI50,"ZR-75-1, cell line ZR751",204 µM
same,GI50,cell line HCC2185,2950 µM
same,GI50,cell line HCC3153,2950 µM
same,GI50,cell line LY2,0.468 µM
same,GI50,cell line MDAMB134V,2950 µM
same,GI50,cell line SUM1315MO,2950 µM
